Earlier results in article PMC5143208 (American journal of transplantation : official journal of …, 2016).

Test system: CCR2
Settings: in vitro

In the case of d(LGTFLKC) [ECL1i], the “binding to CCR2” value is given as “selectively bind CCR2 in a non-competitive way”.
